This is an account of results in patent US20260364080A1, “PYRAZOLO-PYRIMIDINONE COMPOUNDS FOR USE IN METHODS OF INHIBITING WEE1 A KINASE” (Acrivon Therapeutics, Inc., priority 2023, published 2026).

For orientation: IC50 means the midpoint of a concentration-inhibition curve. Broadly, the EC50 is the midpoint of the concentration-response curve.

Read-outs that look alike come from different tables or passages of the source. Bounds are passed on as bounds.

Experiment [1] has as its target T1, recombinant human Wee1A kinase (Homo sapiens, UniProt P30291).
T1 construct: full length Wee1 kinase was expressed by baculovirus in insect cells; purchased Invitrogen PV3817; host or cells: insect cells (baculovirus)
In words: Wee1A kinase binding assay (LanthaScreen Eu time-resolved FRET). In short, it runs like this: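 Full-length, baculovirus-expressed GST-tagged Wee1A (5 nM) was mixed with 2 nM Eu-anti-GST antibody, 30 nM kinase tracer 178 and compound (1% DMSO). Buffer was 50 mM HEPES pH 7.5, 10 mM MgCl2, 1 mM EGTA, 0.01% Brij-35, incubated 60 min at room temperature. TR-FRET 665/615 nm emission ratios from duplicates were curve-fitted.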
In general terms: In TR-FRET formats the signal depends on donor and acceptor labels being close together.

The target in experiment [2] is T2, Myt1 kinase (recombinant PMYT-1) (Homo sapiens, UniProt Q99640).
T2 construct: full length PMYT-1 was expressed by baculovirus in insect cells; purchased Invitrogen A30984; host or cells: insect cells (baculovirus)
T2 sequence (Q99640 1-499): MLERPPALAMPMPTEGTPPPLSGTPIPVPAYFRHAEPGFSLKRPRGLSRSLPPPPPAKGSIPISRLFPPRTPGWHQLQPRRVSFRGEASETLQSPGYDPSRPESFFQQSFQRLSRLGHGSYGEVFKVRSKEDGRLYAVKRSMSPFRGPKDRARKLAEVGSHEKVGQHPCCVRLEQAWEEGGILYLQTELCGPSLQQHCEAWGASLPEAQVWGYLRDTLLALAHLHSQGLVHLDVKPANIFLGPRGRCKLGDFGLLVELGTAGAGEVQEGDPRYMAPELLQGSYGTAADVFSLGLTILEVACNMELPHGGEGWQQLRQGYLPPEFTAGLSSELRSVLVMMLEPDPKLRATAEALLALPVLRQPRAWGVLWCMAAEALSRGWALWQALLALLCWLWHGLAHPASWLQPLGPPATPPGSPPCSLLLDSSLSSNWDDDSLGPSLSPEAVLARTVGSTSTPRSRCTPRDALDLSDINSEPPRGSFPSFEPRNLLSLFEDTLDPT
In words: Myt1 kinase binding assay (LanthaScreen Eu Kinase Binding Assay). A digest of the protocol: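 Compound binding to Myt1 kinase was assessed using the LanthaScreen Eu Kinase Binding Assay. This europium-based binding format was applied to quantify how strongly each compound bound to the Myt1 enzyme, and the binding affinity was reported for each compound as an IC50 value.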

Experiment [3] concerns the target T3, Wee1A kinase (CDK1 Tyr15 phosphorylation in ACHN renal cell carcinoma cells) (Homo sapiens, UniProt P30291).
T3 construct: pCDK1 Tyr15 immunofluorescence read-out
The experiment can be described thus: High-content imaging of pCdk1 Y15, Wee1A kinase target engagement in ACHN cells. Format: cell-based. In short, it runs like this:
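EC50 values come from the per-well fraction of cells with nuclear pCdk1 Y15 staining, normalised to DMSO control, by automated immunofluorescence imaging. Cells were ACHN renal carcinoma, treated 4 h with compound at 7–5,000 nM or 0.3–200 nM.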

The mark [4] stands for this setting: 30 nM tracer 178, 5 nM Wee1A kinase, 2 nM Eu-labeled antibody, 60 minutes at room temperature, read-out: Wee1A kinase Binding IC50.
Setting [5] is: 3 nM tracer 178, 2.5 nM PMYT-1, 1 nM Eu-labeled antibody, read-out: Myt1 kinase Binding IC50.
Setting [6] is: 4 h treatment, nuclear positivity for pCdk1 Y15 vs DMSO control, read-out: CDK1 Tyr15 Phosphorylation EC50.

T1 sequence (P30291 whole entry): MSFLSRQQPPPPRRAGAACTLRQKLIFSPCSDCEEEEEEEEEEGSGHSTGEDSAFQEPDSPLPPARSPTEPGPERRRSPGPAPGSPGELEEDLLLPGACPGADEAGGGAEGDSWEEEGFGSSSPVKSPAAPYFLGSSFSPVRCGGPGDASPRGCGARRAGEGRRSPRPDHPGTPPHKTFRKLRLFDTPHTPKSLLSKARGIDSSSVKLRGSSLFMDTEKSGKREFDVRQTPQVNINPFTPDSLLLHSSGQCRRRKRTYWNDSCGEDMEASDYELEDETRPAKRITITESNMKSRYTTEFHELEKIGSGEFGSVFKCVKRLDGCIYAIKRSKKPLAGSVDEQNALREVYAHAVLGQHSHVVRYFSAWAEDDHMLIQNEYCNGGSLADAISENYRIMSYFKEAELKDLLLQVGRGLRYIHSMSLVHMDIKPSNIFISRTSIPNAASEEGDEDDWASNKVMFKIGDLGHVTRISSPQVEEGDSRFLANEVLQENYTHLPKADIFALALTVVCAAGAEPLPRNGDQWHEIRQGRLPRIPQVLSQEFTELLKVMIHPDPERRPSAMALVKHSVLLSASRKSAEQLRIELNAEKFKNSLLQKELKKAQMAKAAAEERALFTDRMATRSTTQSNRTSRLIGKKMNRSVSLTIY
T3 sequence (P30291 whole entry): as above

For `C=CCn1c(=O)c2cnc(Nc3cc(-c4ccccc4)ns3)nc2n1-c1cccc(NC2CCN(C)CC2)n1` [Compound 158, 2-allyl-1-[6-(1-methyl-4-piperidylamino)-2-pyridyl]-6-(3-phenyl-5-isothiazolylamino)-1,2-dihydro-3H-1,2,5,7-tetraazainden-3-one], the IC50 in experiment [1] (setting [4]) is less than 10 nM; in experiment [2] (setting [5]), 20 to 100 nM. The EC50 in experiment [3] (setting [6]) was 100 to 500 nM.

For the compound `C=CCn1c(=O)c2cnc(Nc3cncc(F)c3)nc2n1-c1cccc(OC2CCN(C)CC2)n1` [Compound 327, 2-allyl-6-(5-fluoro-3-pyridylamino)-1-[6-(1-methyl-4-piperidyloxy)-2-pyridyl]-1,2-dihydro-3H-1,2,5,7-tetraazainden-3-one], the values for the IC50 in experiment [1] (setting [4]) and in experiment [2] (setting [5]) were less than 10 nM and 20 to 100 nM, respectively. Also, in experiment [3] (setting [6]), the EC50 lay within 100 to 500 nM.

`Cc1cc(Nc2ncc3c(=O)n(C)n(-c4cccc(OC5CCN(C)CC5)n4)c3n2)ccc1F` [Compound 152, 6-(4-fluoro-3-toluidino)-2-methyl-1-[6-(1-methyl-4-piperidyloxy)-2-pyridyl]-1,2-dihydro-3H-1,2,5,7-tetraazainden-3-one]: the figures for the IC50 in experiment [1] (setting [4]) and in experiment [2] (setting [5]) were less than 10 nM and 20 to 100 nM, respectively. The EC50 in experiment [3] (setting [6]) is 100 to 500 nM.

Turning to `CCn1c(=O)c2cnc(Nc3cccc(-c4cnn(C)c4)c3)nc2n1-c1cccc(OC2CCNCC2)n1` [Compound 340, 2-ethyl-6-[m-(1-methyl-4-pyrazolyl)phenylamino]-1-[6-(4-piperidyloxy)-2-pyridyl]-1,2-dihydro-3H-1,2,5,7-tetraazainden-3-one], the values for the IC50 in experiment [1] (setting [4]) and in experiment [2] (setting [5]) were less than 10 nM and 100 to 500 nM, respectively. The EC50 in experiment [3] (setting [6]) was more than 1000 nM.

Turning to `C=CCn1c(=O)c2cnc(Nc3ccc4c(c3)nnn4C(C)C)nc2n1-c1cccc(OC2CCN(C)CC2)n1` [Compound 409, 2-allyl-6-((1-isopropyl-1H-benzo[d][1,2,3]triazol-5-yl)amino)-1-(6-((1-methylpiperidin-4-yl)oxy)pyridin-2-yl)-1,2-dihydro-3H-pyrazolo[3,4-d]pyrimidin-3-one], the IC50 in experiment [1] (setting [4]) is less than 10 nM; in experiment [2] (setting [5]) it was less than 20 nM. In addition, the EC50 in experiment [3] (setting [6]) is less than 100 nM.

Consider `C=CCn1c(=O)c2cnc(Nc3cccc(-c4cccnc4)c3)nc2n1-c1cccc(OC2CCN(C)CC2)n1` [Compound 368, 2-allyl-1-[6-(1-methyl-4-piperidyloxy)-2-pyridyl]-6-[m-(3-pyridyl)phenylamino]-1,2-dihydro-3H-1,2,5,7-tetraazainden-3-one], for which the IC50 was less than 10 nM in experiment [1] (setting [4]) and 20 to 100 nM in experiment [2] (setting [5]). Also, the EC50 in experiment [3] (setting [6]) fell in the range of 100 to 500 nM.

Turning to `C=CCn1c(=O)c2cnc(Nc3ccc4[nH]nc(C)c4c3)nc2n1-c1cccc(OC2CCNCC2)n1` [Compound 345, 2-allyl-6-((3-methyl-1H-indazol-5-yl)amino)-1-(6-(piperidin-4-yloxy)pyridin-2-yl)-1,2-dihydro-3H-pyrazolo[3,4-d]pyrimidin-3-one], the values for the IC50 in experiment [1] (setting [4]) and in experiment [2] (setting [5]) were less than 10 nM and 20 to 100 nM, respectively. The EC50 in experiment [3] (setting [6]) lay in the range of 500 to 1000 nM.

With `C=CCn1c(=O)c2cnc(Nc3ccc4nn(CC)cc4c3)nc2n1-c1cccc(OC2CCNCC2)n1` [Compound 276], the IC50 was less than 10 nM in experiment [1] (setting [4]) and 20 to 100 nM in experiment [2] (setting [5]). Also, in experiment [3] (setting [6]), the EC50 was less than 100 nM.

As to `C=CCn1c(=O)c2cnc(Nc3ccnc(OC)c3)nc2n1-c1cccc(OC2CCN(C)CC2)n1` [Compound 263, 2-allyl-6-(2-methoxy-4-pyridylamino)-1-[6-(1-methyl-4-piperidyloxy)-2-pyridyl]-1,2-dihydro-3H-1,2,5,7-tetraazainden-3-one], the figures for the IC50 in experiment [1] (setting [4]) and in experiment [2] (setting [5]) were less than 10 nM and less than 20 nM, respectively. For the same compound, in experiment [3] (setting [6]), the EC50 was less than 100 nM.

For `C=CCn1c(=O)c2cnc(Nc3ccc4c(cnn4C)c3)nc2n1-c1cccc(OC2CCNCC2)c1` [Compound 223, 2-allyl-6-(1-methyl-1H-indazol-5-ylamino)-1-[m-(4-piperidyloxy)phenyl]-1,2-dihydro-3H-1,2,5,7-tetraazainden-3-one], the IC50 in experiment [1] (setting [4]) is less than 10 nM; in experiment [2] (setting [5]), more than 500 nM. In addition, the EC50 in experiment [3] (setting [6]) was 100 to 500 nM.

With `C=CCn1c(=O)c2cnc(Nc3ccc4cn(C)nc4c3)nc2n1-c1cccc(OC2CCNCC2)n1` [Compound 393, 2-allyl-6-((2-methyl-2H-indazol-6-yl)amino)-1-(6-(piperidin-4-yloxy)pyridin-2-yl)-1,2-dihydro-3H-pyrazolo[3,4-d]pyrimidin-3-one], the IC50 was less than 10 nM in experiment [1] (setting [4]) and 20 to 100 nM in experiment [2] (setting [5]). Moreover, the EC50 in experiment [3] (setting [6]) was in the range of 100 to 500 nM.

For `C=CCn1c(=O)c2cnc(Nc3ccc(F)cc3)nc2n1-c1ccnc(OC2CCNCC2)n1` [Compound 247, 2-allyl-6-((4-fluorophenyl)amino)-1-(2-((piperidin-4-yl)oxy)pyrimidin-4-yl)-1,2-dihydro-3H-pyrazolo[3,4-d]pyrimidin-3-one], the results for the IC50 in experiment [1] (setting [4]) and in experiment [2] (setting [5]) were less than 10 nM and less than 20 nM, respectively. The EC50 in experiment [3] (setting [6]) lay in the range of 100 to 500 nM.

Turning to `CCn1c(=O)c2cnc(Nc3ccc(Br)cc3)nc2n1-c1cccc(OC2CCNCC2)n1` [Compound 267, 6-(p-bromophenylamino)-2-ethyl-1-[6-(4-piperidyloxy)-2-pyridyl]-1,2-dihydro-3H-1,2,5,7-tetraazainden-3-one], the values for the IC50 in experiment [1] (setting [4]) and in experiment [2] (setting [5]) were less than 10 nM and 20 to 100 nM, respectively. For the same compound, the EC50 in experiment [3] (setting [6]) fell in the range of 100 to 500 nM.

In the case of `C=CCn1c(=O)c2cnc(Nc3ccc4nccn4c3)nc2n1-c1cccc(OC2CCN(C)CC2)n1` [Compound 328, 6-(1,3a-diaza-5-indenylamino)-2-allyl-1-[6-(1-methyl-4-piperidyloxy)-2-pyridyl]-1,2-dihydro-3H-1,2,5,7-tetraazainden-3-one], the IC50 in experiment [1] (setting [4]) was less than 10 nM; in experiment [2] (setting [5]), 20 to 100 nM. Besides, the EC50 in experiment [3] (setting [6]) is 100 to 500 nM.

For `C=CCn1c(=O)c2cnc(Nc3ccc(C#N)cc3)nc2n1-c1cccc(OC2CCNCC2)n1` [Compound 300, p-{2-allyl-3-oxo-1-[6-(4-piperidyloxy)-2-pyridyl]-1,2-dihydro-3H-1,2,5,7-tetraazainden-6-ylamino}benzonitrile], the IC50 is less than 10 nM in experiment [1] (setting [4]) and 20 to 100 nM in experiment [2] (setting [5]). Further, in experiment [3] (setting [6]), the EC50 lay in the range of 100 to 500 nM.

Turning to `CCn1c(=O)c2cnc(Nc3ccc(Br)cc3)nc2n1-c1cccc(OC2CCN(C)CC2)n1` [Compound 268, 6-(p-bromophenylamino)-2-ethyl-1-[6-(1-methyl-4-piperidyloxy)-2-pyridyl]-1,2-dihydro-3H-1,2,5,7-tetraazainden-3-one], the IC50 in experiment [1] (setting [4]) is less than 10 nM; in experiment [2] (setting [5]), less than 20 nM. Further, the EC50 in experiment [3] (setting [6]) lay within 100 to 500 nM.

As to `C=CCn1c(=O)c2cnc(Nc3ccc4c(cnn4C)c3)nc2n1-c1cccc(O[C@@H]2CCN[C@H](C)C2)n1` (stereo in doubt) [Compound 381, 2-allyl-6-((1-methyl-1H-indazol-5-yl)amino)-1-(6-(((2R,4R)-2-methylpiperidin-4-yl)oxy)pyridin-2-yl)-1,2-dihydro-3H-pyrazolo[3,4-d]pyrimidin-3-one], the IC50 is less than 10 nM in experiment [1] (setting [4]) and 100 to 500 nM in experiment [2] (setting [5]). Further, the EC50 in experiment [3] (setting [6]) is less than 100 nM.

As for `C=CCn1c(=O)c2cnc(Nc3cnn(C)c3)nc2n1-c1cccc(O[C@@H]2C[C@H]3CC[C@@H](C2)N3C)n1` [Compound 189, 6-[(1-methyl-1H-pyrazol-4-yl)amino]-1-(6-{[(cis)-8-methyl-8-azabicyclo[3.2.1]octan-3-yl]oxy}pyridin-2-yl)-2-(prop-2-en-1-yl)-1H,2H,3H-pyrazolo[3,4-d]pyrimidin-3-one], the IC50 is less than 10 nM in experiment [1] and more than 500 nM in experiment [2] (Myt1 kinase Binding IC50, 3 nM tracer 178, 2.5 nM PMYT-1, 1 nM Eu-labeled antibody). Moreover, the EC50 in experiment [3] (read-out: CDK1 Tyr15 Phosphorylation EC50, 4 h treatment, nuclear positivity for pCdk1 Y15 vs DMSO control) fell in the range of 500 to 1000 nM.

Take `CCCn1c(=O)c2cnc(Nc3ccc4c(cnn4C)c3)nc2n1-c1cccc(OC2CCN(C)CC2)n1` [Compound 111, 6-[(1-methyl-1H-indazol-5-yl)amino]-1-{6-[(1-methylpiperidin-4-yl)oxy]pyridin-2-yl}-2-propyl-1H,2H,3H-pyrazolo[3,4-d]pyrimidin-3-one]: the IC50 was less than 10 nM in experiment [1] (setting [4]) and 20 to 100 nM in experiment [2] (setting [5]). The EC50 in experiment [3] (setting [6]) was less than 100 nM.
